Reference: patent US20240424131A1, “TARGETING NANOPARTICLES FOR THERAPY” (University of Pittsburgh - Of the Commonwealth System of …, priority 2021, published 2024)

Test system: CT26 cells
Assay: Transwell co-culture transcytosis, HUVECs and CT26 cells
Assay type: cell-based
Details: NPs applied to HUVECs in upper chamber

`O=C(N/N=C/c1ccc(O)c(O)c1)c1cc2ccccc2cc1O` [dynasore] was tested, and the “transfection of CT26 cells by Cy5.5-siRNA NPs in presence of endocytosis inhibitor” value was “significantly inhibited”.
